According to US20050148523A1, “Method of treating HIV infection in atazanavir-resistant patients using a combination of atazanavir and another protease inhibitor” (priority 2003, published 2005):
Where two headings read alike, the source gives them in different places.

What was measured:
[1] = tested on: HIV-1 in treatment naive patients on ATV containing regimens; experiment: Pooled resistance analysis of studies AI424-007/041, 008/044 and 034; type: in vivo, human; details: patients with I50L, N=10
Excerpt: (§1) Study Population. Viral samples (baseline and on-treatment, where available) were obtained from patients who experienced virologic failure while enrolled in studies AI424-007/041 [12] (ATV+d4T and ddI), AI424-008/044 [13, 14] (ATV+d4T and 3TC) and AI424-034 [9] (ATV or EFV in combination with ZDV and 3TC). […] In general, virologic failure specimens were selected for further resistance evaluation only if they contained >1,000 copies/mL HIV-1 RNA and there was no indication that the specimen came from a patient at a time of transient non-adherence to study drug(s). […] For non-responders, samples from week 16 (or 24) were tested. Drug adherence was determined from pill counts of returned study medications at each scheduled visit.
(§2) ATV resistance was defined as ≧2-fold decrease in ATV susceptibility from baseline, a Fold Change (FC) of ≧2.5 (relative to the Nl4-3 reference strain), or evidence of an isoleucine (Ile) to leucine (Leu) change at amino acid residue 50 (I50L). Resistance levels for NFV and EFV were also defined as a FC reaching 2.5.

[2] = tested on: clinical isolates exhibiting a wide array of PI resistance profiles; details: cited from earlier work
[3] = tested on: HIV-1 in treatment naive patients; experiment: Clinical study AI424-008/044, virological outcomes and resistance; type: in vivo, human; details: study 008/044
Excerpt: as §1, §2

[4] = tested on: recombinant HIV-1 viruses (NL4-3, RF, LAI) in MT-2 cells; experiment: MT-2 cell susceptibility assay of recombinant viruses; type: cell-based
Procedure: Cells and Viruses. MT-2 cells, HIV-1 RF, HIV1-LAI, and the HIV-1 NL4-3 proviral clones were obtained through the AIDS Research and Reference Reagent Program, National Institutes of Health. MT-2 cells were cultured in RPMI 1640 medium supplemented with 10% fetal bovine serum, 2 mM L-glutamine, and 10 mM Hepes buffer. HIV-1 viruses were generated by transient transfection of the proviral DNA into Human Embryonic Kidney 293 cells using Lipofectamine reagents (Gibco BRL). The viruses were harvested 72 hr post-transfection, amplified in MT-2 cells, and titered in the same cells using a virus yield assay.
Recombinant HIV-1 Variants and Chimeric NL4-3 Proviral Clones. HIV-1 strains with defined substitutions in the protease gene were generated by QuikChange® site-directed mutagenesis as recommended by the manufacturer (Stratagene). Recombinant NL4-3 and LAI proviral clones containing the wild-type and mutant protease genes from RF and clinical isolates were constructed by replacing the SseI/ApaI fragment of pNL4-3 with the appropriate SseI/ApaI protease fragments.
Recombinant viruses (generated separately from those made for PhenoSense assays) were tested in an MT-2 cell susceptibility assay at Bristol Myers Squibb. MT-2 cells were infected with recombinant viruses at a multiplicity of infection (MOI) of 0.005 50% tissue culture infective doses (TCID50)/cell followed by incubation in the presence or absence of serially diluted protease inhibitors for 4 to 7 days. Virus yields were quantified using a RT assay as previously described. The results from at least four independent experiments were used to calculate the EC50.

[5] = tested on: HIV-1 in treatment naive patients; experiment: Clinical study AI424-007/041, virological outcomes and resistance; type: in vivo, human; details: study 007/041
Excerpt: as §1, §2

[6] = tested on: clinical isolates containing a D30N substitution; experiment: PhenoSense phenotypic susceptibility of clinical isolates containing D30N; type: cell-based, HIV-1; details: 75 D30N containing isolates, FIG. 3
Procedure: Drug Susceptibility Assays. Clinical isolates were subjected to phenotypic (PhenoSense™) and genotypic (GeneSeq™) analysis by Virologic, Inc. as described elsewhere.
Comparative Studies of I50L and D30N Containing Viruses. […] Comparative studies were performed on the 18 phenotyped viruses containing an I50L and 75 clinical isolates containing a D30N substitution without evidence of cross-resistance (FC≧2.5) to other PIs.

[7] = tested on: NL4-3 reference strain; experiment: PhenoSense phenotypic drug susceptibility assay, reference strain; type: cell-based, HIV-1; details: Human immunodeficiency virus 1, NL43; over the several months of sample testing; read-out: IC50 measured for the NL4-3 reference strain
Procedure: Drug Susceptibility Assays. Clinical isolates were subjected to phenotypic (PhenoSense™) and genotypic (GeneSeq™) analysis by Virologic, Inc. as described elsewhere. Over the time period (several months) in which the samples reported here were tested, the ATV IC50 measured for the NL4-3 reference strain ranged from 0.9-2.0 nM. The success rate in obtaining phenotype and genotype results from patients experiencing virologic failure ranged from 30 to 50%, largely because of low HIV RNA levels (the assays used required levels of >=500 c/mL), insufficient sample volume, or no sample was available.

## COC(=O)N[C@H](C(=O)N[C@@H](Cc1ccccc1)[C@@H](O)CN(Cc1ccc(-c2ccccn2)cc1)NC(=O)[C@@H](NC(=O)OC)C(C)(C)C)C(C)(C)C [ATV, atazanavir]
[1]
  mean time to virologic failure: 50 weeks
[2]; isolates resistant to 1 PI
  percentage of isolates remaining susceptible to ATV: 88%
[2]; isolates resistant to 2 PIs
  percentage of isolates remaining susceptible to ATV: 81%
[2]; isolates resistant to 3 PIs
  percentage of isolates remaining susceptible to ATV: 34%
[2]; isolates resistant to 4 PIs
  percentage of isolates remaining susceptible to ATV: 16%
[2]; isolates resistant to 5 PIs
  percentage of isolates remaining susceptible to ATV: 5%
[3]
  Virologic Failures (%): 24%
  Virologic Failures, number: 88
[4]; Human immunodeficiency virus 1, NL43, MT2, LAI A71V, read-out: ATV phenotype (value before parenthesis, EC50)
  EC50: 3.7 ± 0.9 nM
[4]; Human immunodeficiency virus 1, NL43, MT2, LAI Control, read-out: ATV phenotype (value before parenthesis, EC50)
  EC50: 1.5 ± 0.3 nM
[4]; Human immunodeficiency virus 1, NL43, MT2, LAI I50L, read-out: ATV phenotype (value before parenthesis, EC50)
  EC50: 8.2 ± 3.4 nM
[4]; Human immunodeficiency virus 1, NL43, MT2, NL4-3 020: I50L + M46I, L63P, H69Q, V77I, I93L, read-out: ATV phenotype (value before parenthesis, EC50)
  EC50: 1.9 ± 0.5 nM
[4]; Human immunodeficiency virus 1, NL43, MT2, NL4-3 100A: I50L + L63P, K70R, A71V, N88S, read-out: ATV phenotype (value before parenthesis, EC50)
  EC50: 22.9 ± 6.4 nM
[4]; Human immunodeficiency virus 1, NL43, MT2, NL4-3 100B: I50L + L63P, K70R, A71V, G73S, read-out: ATV phenotype (value before parenthesis, EC50)
  EC50: 27.8 ± 2.8 nM
[4]; Human immunodeficiency virus 1, NL43, MT2, NL4-3 296: I50L + K45R, L63P, A71V, G73S, V77I, I93L, read-out: ATV phenotype (value before parenthesis, EC50)
  EC50: 7.1 ± 1.6 nM
[4]; Human immunodeficiency virus 1, NL43, MT2, NL4-3 347: I50L + I13V, E35D, M36I, M46L, L63P, A71V, V82A, read-out: ATV phenotype (value before parenthesis, EC50)
  EC50: 12.1 ± 1.4 nM
[4]; Human immunodeficiency virus 1, NL43, MT2, NL4-3 372: I50L + L10I, L63P, G73S, I93L, read-out: ATV phenotype (value before parenthesis, EC50)
  EC50: 9.8 ± 0.7 nM
[4]; Human immunodeficiency virus 1, NL43, MT2, NL4-3 398: I50L + E35D, M36L, N37S, R41K, R57K, I62V, L63P, I93L, read-out: ATV phenotype (value before parenthesis, EC50)
  EC50: 9 ± 1.5 nM
[4]; Human immunodeficiency virus 1, NL43, MT2, NL4-3 450: I50L + L19I, R41K, A71V, T74S, read-out: ATV phenotype (value before parenthesis, EC50)
  EC50: 4.4 ± 2.9 nM
[4]; Human immunodeficiency virus 1, NL43, MT2, NL4-3 A71V, read-out: ATV phenotype (value before parenthesis, EC50)
  EC50: 2.4 ± 0.04 nM
[4]; Human immunodeficiency virus 1, NL43, MT2, NL4-3 Control (first group), read-out: ATV phenotype (value before parenthesis, EC50)
  EC50: 0.8 ± 0.3 nM
[4]; Human immunodeficiency virus 1, NL43, MT2, NL4-3 I50L + A71V, read-out: ATV phenotype (value before parenthesis, EC50)
  EC50: 8.6 ± 1.9 nM
[4]; Human immunodeficiency virus 1, NL43, MT2, NL4-3 I50L, read-out: ATV phenotype (value before parenthesis, EC50)
  EC50: 3.1 ± 1.6 nM
[4]; Human immunodeficiency virus 1, NL43, MT2, RF A71V, read-out: ATV phenotype (value before parenthesis, EC50)
  EC50: 0.6 ± 0.2 nM
[4]; Human immunodeficiency virus 1, NL43, MT2, RF Control, read-out: ATV phenotype (value before parenthesis, EC50)
  EC50: 0.7 ± 0.1 nM
[4]; Human immunodeficiency virus 1, NL43, MT2, RF I50L + A71V, read-out: ATV phenotype (value before parenthesis, EC50)
  EC50: 4 ± 0.3 nM
[4]; Human immunodeficiency virus 1, NL43, MT2, RF I50L, read-out: ATV phenotype (value before parenthesis, EC50)
  EC50: 2.2 ± 1.8 nM
[4]; Human immunodeficiency virus 1, NL43, MT2, read-out: ATV phenotype (value before parenthesis, EC50), LAI 150L + A71V
  EC50: 15.1 ± 4.7 nM
[4]; Human immunodeficiency virus 1, NL43, MT2, read-out: ATV phenotype (value before parenthesis, EC50), NL4-3 Control (second group, site-directed mutants)
  EC50: 1.5 ± 0.1 nM
[4]; LAI 150L + A71V
  ATV (Fold Change): 10 Fold Change
[4]; LAI A71V
  ATV (Fold Change): 2.4 Fold Change
[4]; LAI I50L
  ATV (Fold Change): 5.4 Fold Change
[4]; NL4-3 020: I50L + M46I, L63P, H69Q, V77I, I93L
  ATV (Fold Change): 2.5 Fold Change
[4]; NL4-3 100A: I50L + L63P, K70R, A71V, N88S
  ATV (Fold Change): 31 Fold Change
[4]; NL4-3 100B: I50L + L63P, K70R, A71V, G73S
  ATV (Fold Change): 37 Fold Change
[4]; NL4-3 296: I50L + K45R, L63P, A71V, G73S, V77I, I93L
  ATV (Fold Change): 9.5 Fold Change
[4]; NL4-3 347: I50L + I13V, E35D, M36I, M46L, L63P, A71V, V82A
  ATV (Fold Change): 16 Fold Change
[4]; NL4-3 372: I50L + L10I, L63P, G73S, I93L
  ATV (Fold Change): 13 Fold Change
[4]; NL4-3 398: I50L + E35D, M36L, N37S, R41K, R57K, I62V, L63P, I93L
  ATV (Fold Change): 12 Fold Change
[4]; NL4-3 450: I50L + L19I, R41K, A71V, T74S
  ATV (Fold Change): 5.9 Fold Change
[4]; NL4-3 A71V
  ATV (Fold Change): 1.6 Fold Change
[4]; NL4-3 I50L
  ATV (Fold Change): 2.1 Fold Change
[4]; NL4-3 I50L + A71V
  ATV (Fold Change): 5.9 Fold Change
[4]; RF A71V
  ATV (Fold Change): 0.9 Fold Change
[4]; RF I50L
  ATV (Fold Change): 3 Fold Change
[4]; RF I50L + A71V
  ATV (Fold Change): 5.7 Fold Change
[4]; {}
  decrease in susceptibility: 2.1-5.4 fold
[5]
  Virologic Failures (%): 21%
  Virologic Failures, number: 51
[6]
  median FC: small median decreases in susceptibility
[7]
  IC50: 0.9 to 2 nM
